Legend:
Assay type in all cases: physicochemical
[1] = QCM-D adsorption to PVC sensor surface; settings: protein 3 formulation, PS20-poor solution, average, 95% CI±33.7%
Protocol: (§1) The experiments detailed below were informed using quartz sensors coated with various surface compositions such as PVC, PE, PES, PVDF, PC, or PP. These sensors can be pre and post-run cleaned, for example, by way of a 30 min soak in 1% Deconex 11 Solution, a minimum 2 hr soak in DI water (usually overnight), followed by a rinse with DI water and 99% ethanol three times and then blown dry by medical grade nitrogen gas. The sensors were then inserted into a QCM unit as was sample solution, diluent (e.g., NS), and water. Runs were configured and data and procedures were collected. Experimental data was then transformed from frequency to mass data using, for example, the above equations. […]
(§2) In one experimental run, over 60 sensorgrams (i.e., the outputs of the QCM-D instruments) were analyzed and transformed from frequency to mass adsorption data in the aforementioned example. Here the mass adsorbed during the sample period was of primary interest, and the mass during this period was measured by subtracting the average mass recorded and calculated during the diluent period where an ionic liquid had effect on resonance (period 2 above/520 in FIG. 5) from the average mass shift recorded and calculated during the sample period (period 3 above/530 in FIG. 5). […]

[2] = QCM-D adsorption to PES sensor surface; settings: protein 3 formulation, PS20-poor solution, average, 95% CI±5.2%
Protocol: as §1, §2

[3] = QCM-D adsorption, PS20 only runs, PVC and PES sensor surfaces pooled; settings: all at the same concentration, protein 3 experiments, 95% CI±19.77 ng/sq cm
Protocol: as §1, §2

PS20 contribution to mass of layer at the surface [1]: 35.56% | PS20 contribution to mass of layer at the surface [2]: 12.22% | average mass contribution, PS20 only runs [3]: 40.20 ng/sq cm
Substance: polysorbate 20 [PS20]
